Test results from patent US20170173008A1, “ANTIMICROBIAL AGENTS AND SCREENING METHODS” (PRESIDENT AND FELLOWS OF HARVARD COLLEGE, priority 2014, published 2017).
Values after ≈ are worked out from the molar mass of the structure shown. “Also recorded” adds a separate entry of the source. Like-named read-outs stand apart in the source and are kept apart here.

Columns and labels:
DsbB-DsbAC33A dimer = target: T1, DsbB-DsbAC33A dimer (Escherichia coli, UniProt P0A6M2, C49V/C8A); assay: Mass spectrometry of DsbB-DsbAC33A complex treated with compound; type: binding, E. coli
T1 construct: made in house
Description: Since the theoretical molecular weight of compound 16.6 is 289.54 Da, the 35.9-Da mass loss may represent a leaving chloride ion. This mass adduct was not observed when either DsbB (oxidized), DsbA (reduced) or DsbAC33A, alone was treated with the compound (FIG. 7C).

VKOR of M. tuberculosis = target: T2, VKOR of M. tuberculosis (Mycobacterium tuberculosis, UniProt I6X5W1); type: cell-based; settings: agar assay
T2 sequence (I6X5W1 1-210): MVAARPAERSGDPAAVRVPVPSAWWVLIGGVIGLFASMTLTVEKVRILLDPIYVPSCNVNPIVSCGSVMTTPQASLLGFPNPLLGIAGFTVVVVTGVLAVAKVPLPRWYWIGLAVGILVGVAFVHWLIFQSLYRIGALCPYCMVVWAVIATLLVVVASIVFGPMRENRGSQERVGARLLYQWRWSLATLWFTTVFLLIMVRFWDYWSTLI

E. coli DsbB = E. coli DsbB (Escherichia coli, UniProt P0A6M2); assay: Blue/white beta-galactosidase agar assay, DsbB-based E. coli strain; type: cell-based; settings: for MIC for blue color appearance / minimal inhibitory concentration of DsbB: β-galactosidase agar media assay
[1] = test system: DsbBs from other gram-negative pathogens; type: cell-based; settings: agar assay, 384-well plates
purified EcDsbB = target: T3, purified EcDsbB (Escherichia coli, UniProt P0A6M2, C49V/C8A); assay: In vitro assay of purified DsbB (ubiquinone reduction); type: biochemical, E. coli
T3 construct: made in house; host or cells: E. coli
Excerpt: In addition to the in vivo assays of MICs, we have purified DsbB from E. coli and assessed the concentration dependence for inhibition of the enzyme's activity in oxidizing DsbA.
In this assay, we determine the concentration of a compound necessary to reduce the activity of purified DsbB enzyme by 50%. DsbB uses ubiquinone as a co-factor for the generation of disulfide bonds. DsbB oxidizes DsbA and reduces ubiquinone. When it is in the oxidized state, ubiquinone absorbs strongly at 275 nm but it has a diminished absorbance when it is in the reduced state at the same wavelength. Therefore, DsbB activity can be measured by the reduction of ubiquinone and this is assessed by following the decrease of absorbance of ubiquinone at 275 nm. The assay uses 20 μM purified and DTT-reduced DsbA, 20 uM UbQ-5, and 2 nM purified DsbB at pH6.0.
We tested several compounds for their inhibitory effect on EcDsbB-mediated ubiquinone reduction using purified enzymes. In this assay, reduced DsbA provides the source of electrons that are used by EcDsbB to reduce ubiquinone-5. The compounds show dose-dependent inhibition of EcDsbB with half-maximal inhibitory concentrations (IC50) in the low-μM range.

DsbB [2] = target: DsbB (Escherichia coli, UniProt P0A6M2); assay: Oxidation of DsbA by DsbB in growing E. coli (in vivo alkylation assay); settings: liquid minimal medium
Description: Second, we measured MICs of the strongest inhibitors in terms of their effects on the oxidation of DsbA by DsbB and on the inhibition of disulfide bond formation in growing liquid cultures. […] The oxidation of DsbA was assessed by a standard alkylation assay for free cysteines in DsbA.
The in vivo chemical alkylation procedure was done as described previously (Chng S et al. Science 337, 1665-1668 (2012)). […] A 500 μl culture aliquot was then transferred to a 1.5 ml tube and precipitated with 50 μl of trichloroacetic acid (TCA, 100%, Mallinckrodt Baker). The mixture was incubated on ice for 10 min and precipitated proteins were pelleted at 18 000 g for 10 min. The protein pellet was washed with 600 μl ice-cold acetone and incubated on ice for 10 min. The protein was re-pelleted by centrifugation at 18 000 g for 3 min and left to air-dry at room temperature. The TCA-precipitated proteins were either directly subjected to alkylation or first reduced before alkylation. For reduction, proteins were incubated in 100 μl 100 mM Tris HCl, pH 8.0 containing 0.1% SDS and 100 mM dithiothreitol (DTT, Invitrogen) for 30 min at room temperature. M63 (500 μl) medium was added and the reduced proteins were re-precipitated with TCA and further washed with acetone. […]

DsbB [3] = target: T4, DsbB (Escherichia coli, UniProt P0A6M2, C49V/C8A); assay: cell-based; type: cell-based, E. coli; settings: for EC50 RATIO (EC50 compound 16/EC50): E. coli DHB7935, liquid media
T4 construct: expressed in transfected cells; host or cells: E. coli DHB7935 (HK295 ΔdsbB λatt::malF-lacZ102, φ80::pDSW206dsbBhis6-c-myc)

[4] = test system: RcsF, a substrate of DsbA; assay: Disulfide bond formation in RcsF in growing E. coli liquid culture; type: cell-based; settings: liquid minimal medium

T4 sequence (P0A6M2 whole entry C8A/C49V): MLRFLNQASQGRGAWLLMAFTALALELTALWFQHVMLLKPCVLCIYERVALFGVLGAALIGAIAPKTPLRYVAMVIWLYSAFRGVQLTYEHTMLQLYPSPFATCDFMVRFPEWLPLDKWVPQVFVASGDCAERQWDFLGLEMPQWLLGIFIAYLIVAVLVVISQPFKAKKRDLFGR
T3 sequence (P0A6M2 whole entry C8A/C49V): as above
Chain of E. coli DsbB (P0A6M2 whole entry): as the sequence (P0A6M2 whole entry C8A/C49V) above, with A8C, V49C counted along it
T1 sequence (P0A6M2 whole entry C8A/C49V): as the sequence (P0A6M2 whole entry C8A/C49V) above
Chain of DsbB (Escherichia coli, UniProt P0A6M2) (P0A6M2 whole entry): as the sequence (P0A6M2 whole entry C8A/C49V) above, with A8C, V49C counted along it

Compound | adduct on Cys44 of DsbB (DsbB-DsbAC33A dimer; high-resolution tandem mass spectrometry, chymotrypsin digest) [Da] | adduct with the DsbB-DsbAC33A dimer (DsbB-DsbAC33A dimer; ion-trap mass spectrometry) [Da] | concentration up to which no inhibition of VKOR was observed (VKOR of M. tuberculosis) [µM] | difference between inhibition of DsbB and of VKOR (E. coli DsbB; MIC DsbB versus highest concentration without VKOR inhibition) | MIC for blue color appearance / minimal inhibitory concentration of DsbB (E. coli DsbB) [µM] | inhibition of DsbBs of other gram-negative bacteria expressed in E. coli, in words [1] | IC50 (purified EcDsbB; in vitro assay, read-out: IC50) [µM] | MIC, oxidation of DsbA by DsbB (DsbB [2]) [µM] | EC50 (DsbB [3]) [nM] | fold more inhibitory than compound 16 (DsbB [3]) [fold] | EC50 RATIO (EC50 compound 16/EC50) (DsbB [3]) | IC50 (purified EcDsbB; IC50 (μM), Table 9) [µM] | IC50 (purified EcDsbB; IC50, purified DsbB) [µM] | MIC, disulfide bond formation in RcsF [4] [µM]
O=c1c(Cl)c(Cl)cnn1Cc1ccccc1Cl [Compound 16.6] | 252.995 | 253.6 | > 50 | equal to or greater than two orders of magnitude | 0.53 | most effective inhibitor; also recorded: one of the most effective inhibitors | 0.0189 | 0.7 | 160 | 23 | 23.03 | – | – | –
O=c1c(Cl)c(Cl)cnn1Cc1ccccc1 [Compound 16] | – | – | – | – | 5.7 | – | – | 5 | 5100 | – | 1.00 | 1.86 | 1.85 | 100 (≈ 25.5 µg/mL)
